Results as given in US20100209345A1, “Fluorinated Ligands for Targeting Peripheral Benzodiazepine Receptors” (Australian Nuclear Science & Technology Organisation, priority 2006, published 2010).
Where two headings read alike, the source gives them in different places.

Assays:
[1] = Biodistribution of 18F-labelled tracers in rats; format: in vivo; settings: SD rats; for Biodistribution: Bone / Biodistribution: Kidney / Biodistribution: Olfactory bulbs / Biodistribution: Adrenals: decay correction not stated
How it was run: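 Sprague-Dawley rats received 18F tracer, and brain and peripheral tissues were analysed at 15 and 30 min and 1 and 4 h post-injection. For specificity, rats were pretreated 5 min beforehand with PK11195 or Ro 5-4864 (PBR) or flumazenil (CBR), each at 1 mg/kg.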

[2] = target: T1, peripheral benzodiazepine binding site (Rattus norvegicus, UniProt P16257); assay: In vitro binding, [3H]-PK11195, kidney membrane preparation; settings: [3H]-PK11195 (2 nM), 4° C., 1 h
T1 construct: diluted kidney membrane preparation (200 μg); from tissue; host or cells: kidney membrane preparation
Procedure: Non-specific binding was determined with PK11195 (10 μM).
(§1) Non-specific binding was determined with Flumazenil (20 μM). In both cases, incubations were terminated by rapid filtration through Whatman GF/B glass fibre. Filters were immediately washed 3 times with 5 mL ice-cold 50 mM Tris/HCl at pH 7.4. Filters were counted in a β-scintillation counter (Packard) to measure the amount of bound radioactivity. The IC50 of the compounds for the peripheral benzodiazepine binding site and the central benzodiazepine receptor were calculated using Kell 6 software.

[3] = target: T2, peripheral benzodiazepine receptors (Rattus norvegicus, UniProt P16257); assay: In vivo blocking / competition of tracer uptake by pre-treatment with PBR and CBR ligands; settings: rats
T2 construct: high uptake in the tissues which have known PBR sites; from tissue; host or cells: organs of living SD rats (brain and peripheral tissues), in vivo
Procedure: The criteria for significance were **p<0.01 (highly significant) and *p<0.05 (significant). No stars implies not statistical difference from normals or controls.
The biodistribution of PBR132* was undertaken in SD rats and analysis up to 4 h p.i. in the brain and peripheral tissues was performed. The specificity and selectivity of the tracer were assessed by pre-treatment with PBR and Central benzodiazepine receptor (CBR) specific ligands (1 mg/kg) 5 min prior to injection of PBR132*.
The biodistribution of PBR 147* was performed in SD rats and brain and peripheral tissues were analysised at 15, 30 min, 1, and 4 h p.i. The specificity and selectivity of the tracer was assessed by pre-treatment of the animals with the PBR ligands PK11195 and Ro 5-4864 and with Flumazenil for CBR at 1 mg/kg 5 min prior to injection of PBR 147*
The biodistribution of PBR102* and PBR111* were performed in SD rats and brain and peripheral tissues analysed at 15, 30 min, 1, and 4 h p.i. The specificity and selectivity of the tracers were assessed by pre-treatment with the PBR ligands PK11195 and Ro 5-4864 and with Flumazenil for CBR at 1 mg/kg 5 min prior to injection of the corresponding tracers.
The specificity and selectivity of the tracers were assessed by pre-treatment with the PBR ligands PK11195 and Ro 5-4864 and with Flumazenil for CBR at 1 mg/kg 5 min prior to injection of the corresponding tracers.

[4] = target: central benzodiazepine receptors; assay: In vitro binding, [3H]-Flumazenil, brain cortex membrane preparation; settings: [3H]-Flumazenil (2 nM), 25° C., 45 min, read-out: CBR IC50
Procedure: as §1

CN(C(=O)Cc1c(-c2ccc(OCCCF)cc2)nc2c(Cl)cc(Cl)cn12)c1ccccc1 [PBR 147, 2-(2-(4-(3-fluoropropoxy)phenyl)-6,8-dichloroimidazo[1,2-a]pyridin-3-yl)-N-methyl-N-phenylacetamide]
Biodistribution: Bone ([1]; 15 min): 1 % ID/g
Biodistribution: Kidney ([1]; 15 min): 5 % ID/g
Biodistribution: Olfactory bulbs ([1]; 15 min): 0.66 % ID/g
Heart uptake maintained throughout the experiment ([1]; 15 min to 4 h): 7%
Biodistribution: Adrenals ([1]; 30 min): 9 % ID/g
Biodistribution: Adrenals ([1]; 4 hours): 11 % ID/g
Biodistribution: Bone ([1]; 4 hours): 2.9 % ID/g
Biodistribution: Kidney ([1]; 4 hours): 3.6 % ID/g
Biodistribution: Olfactory bulbs ([1]; 4 hours): 0.26 % ID/g
Blood activity level / concentration in the blood over the 4 h study period ([1]; throughout 15 min to 4 h): significantly lower
IC50 ([2]; PBR IC50 (nM)): 7.4 nM
Tracer uptake after pre-treatment with PK 11195 ([3]; PK 11195 1 mg/kg 5 min prior to tracer, PBR-expressing tissues (brain/peripheral organs, adrenals apart)): decreased
Tracer uptake in the adrenals after pre-treatment with PK 11195 ([3]; PK 11195 1 mg/kg 5 min prior to tracer, adrenals): increase
Tracer uptake after pre-treatment with Ro 5-4864 ([3]; Ro 5-4864 1 mg/kg 5 min prior to tracer, PBR-expressing tissues (brain/peripheral organs, adrenals apart)): decreased
Tracer uptake in the adrenals after pre-treatment with Ro 5-4864 ([3]; Ro 5-4864 1 mg/kg 5 min prior to tracer, adrenals): increase
Tracer uptake after pre-treatment with flumazenil (central benzodiazepine ligand) ([3]; flumazenil 1 mg/kg 5 min prior to tracer, brain or peripheral organs): no effect
IC50 [4]: 4090 nM
chromatographic logP (LogP HPLC): 4.31 ± 0.13

CCN(CC)C(=O)Cc1c(-c2ccc(OCCCCF)cc2)nc2ccc(Cl)cn12 [PBR 120, 2-(2-(4-(4-fluorobutoxy)phenyl)-6-chloroimidazo[1,2-a]pyridin-3-yl)-N,N-diethylacetamide]
IC50 ([2]; PBR IC50 (nM)): 35 nM
IC50 [4]: 942 nM
chromatographic logP (LogP HPLC): 3.53 ± 0.11

2-(6-chloro-2-(4-methoxyphenyl)imidazo[1,2-b]pyridazin-3-yl)-N,N-diethylacetamide [PBR 133]
IC50 ([2]; read-out: PBR IC50): 32 nM
IC50 [4]: 18.8 nM
LogP HPLC (LogP HPLC; HPLC): 2.35 ± 0.07

CN(C)C(=O)Cc1c(-c2ccc(OCCF)cc2)nc2ccc(Cl)cn12 [PBR105, 2-(2-(4-(2-fluoroethoxy)phenyl)-6-chloroimidazo[1,2-a]pyridin-3-yl)-N,N-dimethylacetamide]
IC50 ([2]; PBR IC50 (nM)): 675 nM
IC50 [4]: 1760 nM
chromatographic logP (LogP HPLC): 2.04 ± 0.06

CCCN(CCC)C(=O)Cc1c(-c2ccc(OCCF)cc2)nc2ccc(Cl)cn12 [PBR103, 2-(2-(4-(2-fluoroethoxy)phenyl)-6-chloroimidazo[1,2-a]pyridin-3-yl)-N,N-dipropylacetamide]
IC50 ([2]; PBR IC50 (nM)): 51.3 nM
IC50 [4]: 1840 nM
chromatographic logP (LogP HPLC): 3.44 ± 0.11
